Assays:
[1] = system: Eimeria bovis, Eimeria aubumenis and Eimeria zuernii coccidia oocysts; assay: Calves challenged with a coccidia challenge culture (Example 9); format: in vivo
Description: Sixty naive calves weighing approximately 110-125 kg were purchased from local dairies, weighed, identified by ear tag, and observed for general health assessments. Animals considered physically abnormal, undersized or moribund on arrival were excluded from the study. Calves were housed in five holding pens (12 animals/pen). Calves were held for 7 days prior to challenge in order to acclimate them to the facility. Prior to challenge, calves were excluded from the study at the discretion of the investigator. On days −6, −4 and −2 pre-challenge, fecal samples were obtained for semi-quantitative oocyst counts. On day −4 pre-challenge, oocysts, if present, were speciated.
On day 8 post-arrival (study day 0), calves were inoculated orally with the Eimeria culture. Beginning on day 1, temperatures were determined and recorded at approximately the same time each day for the duration of the study. Attitude, hydration and fecal consistency scores were evaluated daily. Post-challenge, fecal samples were collected on days 2, 4, 6, 8 and 10. Oocysts were speciated on day 10 post-challenge. On day 10 post-challenge, fifty animals were randomly allotted to one of five treatment groups using a randomized block allotment. Treatments were equally represented in each pen. Animals were injected subcutaneously with a single dose of one of the following solutions: (1) about 4 mL of sterile 0.9% sodium chloride (saline); (2) about 4 mL of 300 mg/mL MICOTIL at a dose of 10 mg/kg of body weight; (3) about 6 mL of the pharmaceutical composition at a dose of 5 mg/kg of body weight; (4) about 3 mL of the pharmaceutical composition at a dose of 2.5 mg/kg of body weight; or animals were drenched dosed orally with (5) about 2 oz. of amprolium in a 9.6% oral solution at a dose of 10 mg/kg of body weight. Only amprolium was re-administered on each of the following four days. All other treatments were given in a single dose injection. Fecal samples were examined semi-quantitatively post-treatment for shedding of coccidia oocysts on days 12, 14, 16 and 18. Beginning on day 19 and continuing through day 28, daily fecal samples were evaluated for semi-quantitative counts. Speciation of shed oocysts was performed on days 19-21, 23, 26 and 28. Calves that died during the course of the study or that were euthanized due to a moribund condition associated with clinical coccidiosis were counted as mortalities. Mortalities were necropsied and gross findings were recorded. At the termination of the study on day 28, all remaining animals were weighed, euthanized and examined post-mortem.
Assessment of drug efficacy was determined based upon analysis of mean daily clinical scores, temperature and oocyst shedding. Differences in clinical scores and temperature between different treatments were evaluated by repeated measures ANOVA. Differences in weight gain were determined by factorial ANOVA. Comparisons of mortality rates and oocyst shedding between treatments was performed using Chi-Square analysis and Fisher's Exact test.

[2] = Equilibration of N-(n-propyl) isomer I and isomer II in heated aqueous acid solution, HPLC (Example 2, Table 1); format: physicochemical; details: N-(n-propyl) isomer I prior to equilibration, for comparison
Description: The equilibrium ratio of N-(n-propyl) isomer I and N-(n-propyl) isomer II (about 90%±4% to about 10%±4%, respectively) was consistent for all experiments. […] Without being bound by any theory, lower equilibration temperatures or lower pH values generally result in substantially longer equilibration times. Equilibration time can also depend on, inter alia, the concentration of starting material, and the type and concentration of the acid used. N-(n-propyl) isomer I at a concentration of up to about 300 mg per mL of composition was heated to a temperature of about 40° C. to about 80° C. in the presence of one or more acids at a concentration of about 0.2 mmol to about 1.0 mmol per mL of mixture and with a sufficient quantity of hydrochloric acid to achieve a pH of about 6.5 to about 7.5 for up to about 20 hours to produce an equilibrium mixture of isomers that is about 95%-98% pure. Equilibration kinetic parameters and impurity levels for equilibration of N-(n-propyl) isomer I and N-(n-propyl) isomer II were determined as a function of pH, equilibration temperature, type of acid, and N-(n-propyl) isomer I concentration and are listed in Table 1. […]
Equilibrium mixtures of isomers were prepared and assayed as follows. […] Where 0.1 M citric or tartaric acid was used, hydrochloric acid was also added in a quantity sufficient to obtain the pH listed in column 2. […]

Pasteurella multocida = assay: Therapeutic efficacy in swine infected with Pasteurella multocida (Example 5); format: in vivo; details: pigs, P. multocida challenge, 1.25 mg/kg intramuscular
Description: By Apotency-actual@ number, as used herein, is meant the actual mg per mL of the substantially pure mixture or equilibrium mixture of N-(n-propyl) isomer I and N-(n-propyl) isomer II present in the pharmaceutical composition.
Fifty clinically normal and healthy pigs having a consistent body weight of approximately 10 kg were selected from a pool of 60 animals. Selected animals (10 per treatment) were randomly assigned to treatment and sorted into pens accordingly. On day 0, each animal was inoculated endotracheally with 25 mL of Pasteurella multocida challenge culture. […] Temperatures and illness scores were recorded 6 hours post-challenge and once daily beginning at 24 hours post-challenge. […] An estimate of the percentage of affected lung tissue was determined and recorded. […]
Assessment of efficacy was determined based upon comparison of mean daily illness scores, temperatures and lung-lesion scores. Differences between treatments for mean daily rectal temperatures and illness scores were evaluated by a repeated measures analysis of variance. Differences between mean lung-lesion scores for each treatment were evaluated using a factorial analysis of variance procedure. […]

[3] = system: Actinobacillus pleuropneumoniae; assay: Pigs at a high risk for developing an Actinobacillus pleuropneumoniae infection, seeder-pig exposure (Example 8); format: in vivo
Description: One hundred and thirty clinically healthy pigs having an average body weight of approximately 10 kg were purchased, identified with an ear tag and acclimated to the study site 2 days before the study began. On day −1, all animals were weighed and 100 animals were selected for consistency of body weight (about 10 kg) and lack of signs of clinical abnormalities. Selected animals (20 per treatment) were randomly assigned to treatment and sorted into individual pens. A group of 25 additional animals were randomly assigned as seeder pigs (5 per treatment). […] Temperatures and illness scores were recorded daily. […] An estimate of the percentage of affected lung tissue was determined and recorded. […]
Assessment of efficacy was determined based upon comparison of mean daily illness scores, temperatures and lung-lesion scores. Differences between treatments for mean daily rectal temperatures and illness scores were evaluated by a repeated-measures analysis of variance. […]

[4] = amprolium, MICOTIL, or pharmaceutical composition at either dose level

In the case of CCCc1ncc(C[n+]2ccccc2C)c(N)n1 [Amprolium, amprolium], the “21-day Average Daily Weight Gain” value ([1]; 10 mg/kg oral drench from day 10 post-challenge, re-administered on each of the following four days) is reported as 0.60 kg, the “mean daily hydration scores compared to the saline treated calves” value ([1]; amprolium 10 mg/kg oral) is reported as “statistically significant reductions (p<0.05)” and the “mean daily attitude scores compared to the saline controls” value [1, 4] is reported as “significant reductions (p<0.05)”. For the same compound, the “mean daily fecal consistency scores compared to the saline treated calves” value [1, 4] was “statistically significant reductions (p<0.05)” and the “oocyst shedding compared to the saline controls” value ([1]; days 19-28 post-challenge) was “decreased”.

In the case of CCCNC[C@]1(O)[C@H](C)O[C@@H](O[C@H]2[C@H](C)[C@@H](O[C@@H]3O[C@H](C)C[C@H](N(C)C)[C@H]3O)[C@](C)(O)C[C@@H](C)CN[C@H](C)[C@@H](O)[C@](C)(O)[C@@H](CC)OC(=O)[C@@H]2C)C[C@@]1(C)OC [DS], the “% Equilibrium mixture of isomers” value [2] is reported as 98.39% and the “% Impurities” value [2] is reported as 1.61%.

With CN1C[C@@H]2C[C@H]1CN2c1cc2c(cc1F)c(=O)c(C(=O)O)cn2C1CC1 [Danofloxacin, danofloxacin] the “Mean Lung Lesion Score (%)” value (Pasteurella multocida; re-administered on each of the following two days) was 1.9%, the “mean daily illness scores” value (Pasteurella multocida; three doses, saline about 3) was “about 2” and the “Mean Lung-lesion Score” value ([3]; pigs exposed to A. pleuropneumoniae seeder pigs, 1.25 mg/kg intramuscular, re-administered on each of the following two days) was 4.8%. The “mean daily illness scores in the saline-treated pigs compared to treated animals” value ([3]; pigs, danofloxacin 1.25 mg/kg x3, pharmaceutical composition 2.5, 5, 10 mg/kg) was “Statistically significant (p<0.05) elevations”.
